Data set [1] is described as follows: Octanol-water distribution coefficient (logD pH 7.4) of the labeled tracer. The note with it: n-octanol/PBS pH 7.4, room temperature. Format: physicochemical. In outline:
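About 1 MBq tracer partitioned in 1:1 PBS pH 7.4/n-octanol, mixed 3 min at room temperature, centrifuged 15000 g for 5 min. Both layers counted by gamma counter; at least six repeats.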

Another data set has as its target HSA (Homo sapiens, UniProt P02768). The experiment in a line: HSA binding by RIAC method (gel filtration, apparent molecular weight). The settings on record: HSA binding as apparent molecular weight, 700 μM HSA in PBS mobile phase. Format: in vitro ADME. On the procedure: A gel filtration column Superdex 75 Increase 10/300 GL (GE Healthcare, Uppsala, Sweden) was beforehand calibrated following the producer's recommendations with a commercially available gel filtration calibration kit (GE Healthcare, Buckinghamshire, UK) comprising conalbumin (MW: 75 kDa), ovalbumin (44 kDa), carbonic anhydrase (29 kDa), ribonuclease A (13.7 kDa) and aprotinin (6.5 kDa) as reference proteins of known molecular weight. AMSEC experiments were conducted using a constant flow rate of 0.8 mL/min at rt. A solution of HSA in PBS at physiological concentration (700 μM) was used as the mobile phase. SST2 ligands were labelled as described with molar activities of 10-20 GBq/μmol. Probes of 1.0 MBq of the radioligand were injected directly from the labelling solution. HSA binding was expressed as an apparent molecular weight MW calculated from the retention time of the radioligand using the determined calibration curve.
For evaluation, experimentally determined retention times tR are first converted into elution volumes Ve by multiplying with the flow rate and thereafter converted into partition coefficients Kav following the equation
where V0 is the column void volume (8.027 mL) and Vc is the geometric column volume (24 mL). Using the equation given by the trend line plot of the column calibration
the apparent molecular weight MW is calculated as […]

Chain of HSA (P02768 25-609): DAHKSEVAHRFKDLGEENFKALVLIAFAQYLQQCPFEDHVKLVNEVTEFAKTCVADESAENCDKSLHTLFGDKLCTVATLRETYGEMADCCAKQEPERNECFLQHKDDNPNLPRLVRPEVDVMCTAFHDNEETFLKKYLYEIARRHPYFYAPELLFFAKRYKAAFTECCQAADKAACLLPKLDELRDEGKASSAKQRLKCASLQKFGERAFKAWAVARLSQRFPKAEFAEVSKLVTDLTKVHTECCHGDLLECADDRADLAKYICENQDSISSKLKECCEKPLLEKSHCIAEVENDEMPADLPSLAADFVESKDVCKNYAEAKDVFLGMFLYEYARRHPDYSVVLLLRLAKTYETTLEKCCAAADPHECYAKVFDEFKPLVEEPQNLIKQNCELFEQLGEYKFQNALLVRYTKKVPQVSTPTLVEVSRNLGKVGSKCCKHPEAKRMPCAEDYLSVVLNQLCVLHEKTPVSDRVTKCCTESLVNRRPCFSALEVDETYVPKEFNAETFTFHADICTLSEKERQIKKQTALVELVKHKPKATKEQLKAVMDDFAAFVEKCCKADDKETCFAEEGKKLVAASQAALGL

As to `C[C@@H](O)[C@H](NC(=O)C1CSSCC(NC(=O)C(Cc2ccccc2)NC(=O)COCCOCCNC(=O)C(CC(=O)O)NC(=O)[C@@H](CC(=O)O)NC(=O)C(CNC(=O)CN2CCN(CC(=O)O)CCN(CC(=O)O)CCN(CC(=O)O)CC2)NC(=O)[C@@H](CN)NC(=O)c2ccc([Si](F)(C(C)(C)C)C(C)(C)C)cc2)C(=O)N[C@@H](Cc2ccc(O)cc2)C(=O)NC(Cc2c[nH]c3ccccc23)C(=O)N[C@@H](CCCCN)C(=O)N[C@@H]([C@@H](C)O)C(=O)N1)C(=O)O` (stereo partly drawn) (natGa complex, metal not drawn) [[Ga]23], the “LogDpH=7.4” value in data set [1] is recorded as −1.86 ± 0.06. In addition, on HSA, the HSA is recorded as 18.59 kDa.
For the compound `C[C@@H](O)[C@H](NC(=O)C1CSSCC(NC(=O)C(Cc2ccccc2)NC(=O)CNC(=O)CNC(=O)[C@@H](CC(=O)O)NC(=O)C(CC(=O)O)NC(=O)[C@@H](CNC(=O)CN2CCN(CC(=O)O)CCN(CC(=O)O)CCN(CC(=O)O)CC2)NC(=O)C(CN)NC(=O)c2ccc([Si](F)(C(C)(C)C)C(C)(C)C)cc2)C(=O)N[C@@H](Cc2ccc(O)cc2)C(=O)NC(Cc2c[nH]c3ccccc23)C(=O)N[C@@H](CCCCN)C(=O)N[C@@H]([C@@H](C)O)C(=O)N1)C(=O)O` (stereo partly drawn) [[Ga]19], in data set [1], the “LogDpH=7.4” value was −2.11 ± 0.04. For the same compound, the HSA on HSA is 21.17 kDa.
For `C[C@@H](O)[C@H](NC(=O)C1CSSCC(NC(=O)C(Cc2ccccc2)NC(=O)CNC(=O)CNC(=O)[C@@H](CC(=O)O)NC(=O)C(CC(=O)O)NC(=O)[C@@H](CNC(=O)CC[C@H](C(=O)O)N2CCN(CC(=O)O)CCN(CC(=O)O)CCN(CC(=O)O)CC2)NC(=O)C(CN)NC(=O)c2ccc([Si](F)(C(C)(C)C)C(C)(C)C)cc2)C(=O)N[C@@H](Cc2ccc(O)cc2)C(=O)NC(Cc2c[nH]c3ccccc23)C(=O)N[C@@H](CCCCN)C(=O)N[C@@H]([C@@H](C)O)C(=O)N1)C(=O)O` (stereo partly drawn) [[Ga]20], in that order: −2.16 ± 0.04 and 21.49 kDa.
Taken in the same sequence, the figures for `C[C@@H](O)[C@H](NC(=O)C1CSSCC(NC(=O)C(Cc2ccccc2)NC(=O)CNC(=O)CNC(=O)[C@@H](CC(=O)O)NC(=O)C(CC(=O)O)NC(=O)[C@@H](CNC(=O)CN2CCN(CC(=O)O)CCN(CC(=O)O)CCN(CC(=O)O)CC2)NC(=O)C[N+](C)(C)Cc2ccc([Si](F)(C(C)(C)C)C(C)(C)C)cc2)C(=O)N[C@@H](Cc2ccc(O)cc2)C(=O)NC(Cc2c[nH]c3ccccc23)C(=O)N[C@@H](CCCCN)C(=O)N[C@@H]([C@@H](C)O)C(=O)N1)C(=O)O` (stereo partly drawn) [[Ga]24] were −1.92 ± 0.03 and 8.77 kDa.
Taken in the same sequence, the figures for `C[C@@H](O)[C@H](NC(=O)C1CSSCC(NC(=O)C(Cc2ccccc2)NC(=O)CNC(=O)CNC(=O)CNC(=O)C(CC(=O)O)NC(=O)[C@@H](CC(=O)O)NC(=O)C(CNC(=O)C[N+](C)(C)Cc2ccc([Si](F)(C(C)(C)C)C(C)(C)C)cc2)NC(=O)CN2CCN(CC(=O)O)CCN(CC(=O)O)CCN(CC(=O)O)CC2)C(=O)N[C@@H](Cc2ccc(O)cc2)C(=O)NC(Cc2c[nH]c3ccccc23)C(=O)N[C@@H](CCCCN)C(=O)N[C@@H]([C@@H](C)O)C(=O)N1)C(=O)O` (stereo partly drawn) [[Ga]44] were −2.06 ± 0.08 and 6.99 kDa.
For `C[C@@H](O)[C@H](NC(=O)C1CSSCC(NC(=O)C(Cc2ccccc2)NC(=O)CNC(=O)CNC(=O)CNC(=O)C(CC(=O)O)NC(=O)[C@@H](CC(=O)O)NC(=O)C(CCCCN)NC(=O)[C@@H](CNC(=O)C[N+](C)(C)Cc2ccc([Si](F)(C(C)(C)C)C(C)(C)C)cc2)NC(=O)CN2CCN(CC(=O)O)CCN(CC(=O)O)CCN(CC(=O)O)CC2)C(=O)N[C@@H](Cc2ccc(O)cc2)C(=O)NC(Cc2c[nH]c3ccccc23)C(=O)N[C@@H](CCCCN)C(=O)N[C@@H]([C@@H](C)O)C(=O)N1)C(=O)O` (stereo partly drawn) [[Ga]45], the “LogDpH=7.4” value in data set [1] is reported as −2.10 ± 0.04. Besides, the HSA at HSA amounted to 7.76 kDa.
Taken in the same sequence, the figures for `C[C@@H](O)[C@H](NC(=O)C1CSSCC(NC(=O)C(Cc2ccccc2)NC(=O)CNC(=O)CNC(=O)CNC(=O)C(CC(=O)O)NC(=O)[C@@H](CC(=O)O)NC(=O)C(CCCNC(N)=O)NC(=O)[C@@H](CNC(=O)C[N+](C)(C)Cc2ccc([Si](F)(C(C)(C)C)C(C)(C)C)cc2)NC(=O)CN2CCN(CC(=O)O)CCN(CC(=O)O)CCN(CC(=O)O)CC2)C(=O)N[C@@H](Cc2ccc(O)cc2)C(=O)NC(Cc2c[nH]c3ccccc23)C(=O)N[C@@H](CCCCN)C(=O)N[C@@H]([C@@H](C)O)C(=O)N1)C(=O)O` (stereo partly drawn) [[Ga]46] were −2.22 ± 0.03 and 6.81 kDa.
Take `C[C@@H](O)[C@H](NC(=O)C1CSSCC(NC(=O)C(Cc2ccccc2)NC(=O)CNC(=O)CNC(=O)CNC(=O)C(CC(=O)O)NC(=O)[C@@H](CC(=O)O)NC(=O)C(CCC(=O)O)NC(=O)[C@@H](CNC(=O)C[N+](C)(C)Cc2ccc([Si](F)(C(C)(C)C)C(C)(C)C)cc2)NC(=O)CN2CCN(CC(=O)O)CCN(CC(=O)O)CCN(CC(=O)O)CC2)C(=O)N[C@@H](Cc2ccc(O)cc2)C(=O)NC(Cc2c[nH]c3ccccc23)C(=O)N[C@@H](CCCCN)C(=O)N[C@@H]([C@@H](C)O)C(=O)N1)C(=O)O` (stereo partly drawn) [[Ga]47]: in data set [1], the “LogDpH=7.4” value is reported as −2.30 ± 0.02. For the same compound, the HSA at HSA was determined as 7.66 kDa.
In the case of `C[C@@H](O)[C@H](NC(=O)C1CSSCC(NC(=O)C(Cc2ccccc2)NC(=O)[C@@H](CC(N)=O)NC(=O)C(CC(N)=O)NC(=O)[C@@H](CC(=O)O)NC(=O)C(CC(=O)O)NC(=O)[C@@H](CNC(=O)CN2CCN(CC(=O)O)CCN(CC(=O)O)CCN(CC(=O)O)CC2)NC(=O)C[N+](C)(C)Cc2ccc([Si](F)(C(C)(C)C)C(C)(C)C)cc2)C(=O)N[C@@H](Cc2ccc(O)cc2)C(=O)NC(Cc2c[nH]c3ccccc23)C(=O)N[C@@H](CCCCN)C(=O)N[C@@H]([C@@H](C)O)C(=O)N1)C(=O)O` (stereo partly drawn) [[Ga]48], in data set [1], the “LogDpH=7.4” value is −2.10 ± 0.05. On HSA, the HSA is recorded as 8.11 kDa.
Consider `C[C@@H](O)[C@H](NC(=O)C1CSSCC(NC(=O)C(Cc2ccccc2)NC(=O)[C@@H](CC(N)=O)NC(=O)C(CC(N)=O)NC(=O)CNC(=O)C(CC(=O)O)NC(=O)[C@@H](CC(=O)O)NC(=O)C(CNC(=O)CN2CCN(CC(=O)O)CCN(CC(=O)O)CCN(CC(=O)O)CC2)NC(=O)C[N+](C)(C)Cc2ccc([Si](F)(C(C)(C)C)C(C)(C)C)cc2)C(=O)N[C@@H](Cc2ccc(O)cc2)C(=O)NC(Cc2c[nH]c3ccccc23)C(=O)N[C@@H](CCCCN)C(=O)N[C@@H]([C@@H](C)O)C(=O)N1)C(=O)O` (stereo partly drawn) [[Ga]49], for which the “LogDpH=7.4” value in data set [1] is on record as −2.16 ± 0.03. On HSA, the HSA was 7.26 kDa.
Taken in the same sequence, the figures for `C[C@@H](O)[C@H](NC(=O)C1CSSCC(NC(=O)C(Cc2ccccc2)NC(=O)CNC(=O)CNC(=O)CNC(=O)C(CC(=O)O)NC(=O)[C@@H](CC(=O)O)NC(=O)C(CNC(=O)CN2CCN(CC(=O)O)CCN(CC(=O)O)CCN(CC(=O)O)CC2)NC(=O)C[N+](C)(C)Cc2ccc([Si](F)(C(C)(C)C)C(C)(C)C)cc2)C(=O)N[C@@H](Cc2ccc(O)cc2)C(=O)NC(Cc2c[nH]c3ccccc23)C(=O)N[C@@H](CCCCN)C(=O)N[C@@H]([C@@H](C)O)C(=O)N1)C(=O)O` (stereo partly drawn) [[Ga]50] were −2.00 ± 0.12 and 8.18 kDa.
Regarding `C[C@@H](O)[C@H](NC(=O)C1CSSCC(NC(=O)C(Cc2ccccc2)NC(=O)CNC(=O)CNC(=O)CNC(=O)C(CC(=O)O)NC(=O)[C@@H](CC(=O)O)NC(=O)C(CNC(=O)CN2CCN(CC(=O)O)CCN(CC(=O)O)CCN(CC(=O)O)CC2)NC(=O)[C@@H](CN)NC(=O)C[N+](C)(C)Cc2ccc([Si](F)(C(C)(C)C)C(C)(C)C)cc2)C(=O)N[C@@H](Cc2ccc(O)cc2)C(=O)NC(Cc2c[nH]c3ccccc23)C(=O)N[C@@H](CCCCN)C(=O)N[C@@H]([C@@H](C)O)C(=O)N1)C(=O)O` (stereo partly drawn) [[Ga]51], in data set [1], the “LogDpH=7.4” value was −1.97 ± 0.01. Besides, the HSA at HSA is listed as 8.71 kDa.
